Two compounds from ChEMBL document CHEMBL4507276 (2021) can be followed below.

Assay [1] concerns the target Serine/threonine-protein kinase DCLK1 (Homo sapiens) (UniProt O15075). The note with it: Compound concentration 1000.0 nM.
In assay [2] the target is Cyclin-dependent kinase 2 homolog (Plasmodium falciparum (isolate 3D7)) (UniProt P61075). The note with it: Compound concentration 1000.0 nM.
Assay [3] has as its system Phosphatidylinositol 4,5-bisphosphate 3-kinase catalytic subunit alpha isoform (Homo sapiens), P42336 [H1047Y]. The note with it: Compound concentration 1000.0 nM.
Assay [4] relates to Phosphatidylinositol 4,5-bisphosphate 3-kinase catalytic subunit alpha isoform (Homo sapiens), P42336 [M1043I]. The note with it: Compound concentration 1000.0 nM.
Assay [5] deals with Tyrosine-protein kinase ABL1 (Homo sapiens), P00519 [F317I]. The note with it: Compound concentration 1000.0 nM.
Chain of Tyrosine-protein kinase ABL1 (Homo sapiens), P00519 [F317I] (P00519 whole entry F317I): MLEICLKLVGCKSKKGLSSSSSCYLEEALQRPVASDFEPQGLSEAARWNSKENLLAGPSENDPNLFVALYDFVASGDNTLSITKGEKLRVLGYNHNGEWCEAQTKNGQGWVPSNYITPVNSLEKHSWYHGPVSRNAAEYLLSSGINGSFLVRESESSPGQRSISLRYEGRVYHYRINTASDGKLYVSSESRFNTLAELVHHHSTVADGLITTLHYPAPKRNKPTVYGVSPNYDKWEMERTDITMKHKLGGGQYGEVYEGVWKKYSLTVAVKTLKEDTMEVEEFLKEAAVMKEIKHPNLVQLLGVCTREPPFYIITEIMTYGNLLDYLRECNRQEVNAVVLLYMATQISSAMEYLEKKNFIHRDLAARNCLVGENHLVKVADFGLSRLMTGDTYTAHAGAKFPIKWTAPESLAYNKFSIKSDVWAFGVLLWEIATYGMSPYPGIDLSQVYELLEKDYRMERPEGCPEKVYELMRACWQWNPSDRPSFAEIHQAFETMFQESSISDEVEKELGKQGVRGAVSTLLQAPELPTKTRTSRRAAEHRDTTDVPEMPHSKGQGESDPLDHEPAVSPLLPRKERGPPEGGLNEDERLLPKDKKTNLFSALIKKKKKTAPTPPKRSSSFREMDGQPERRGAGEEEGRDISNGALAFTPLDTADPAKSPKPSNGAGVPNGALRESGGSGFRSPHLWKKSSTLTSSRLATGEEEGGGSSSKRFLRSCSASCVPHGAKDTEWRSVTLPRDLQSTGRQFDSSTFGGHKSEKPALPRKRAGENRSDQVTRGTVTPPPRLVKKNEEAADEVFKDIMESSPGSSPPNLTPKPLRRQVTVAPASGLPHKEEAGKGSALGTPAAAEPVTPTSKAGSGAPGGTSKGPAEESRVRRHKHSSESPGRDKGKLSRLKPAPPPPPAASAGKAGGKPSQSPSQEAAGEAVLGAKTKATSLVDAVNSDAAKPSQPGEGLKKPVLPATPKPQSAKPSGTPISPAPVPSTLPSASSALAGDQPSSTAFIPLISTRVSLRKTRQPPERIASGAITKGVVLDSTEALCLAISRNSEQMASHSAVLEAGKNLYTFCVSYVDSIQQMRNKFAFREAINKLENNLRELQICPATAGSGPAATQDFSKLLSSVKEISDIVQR
The target in assay [6] is Cyclin-dependent kinase 4 (Homo sapiens) (UniProt P11802). Particulars: Compound concentration 1000.0 nM.
Chain of Cyclin-dependent kinase 4 (Homo sapiens) (P11802 whole entry): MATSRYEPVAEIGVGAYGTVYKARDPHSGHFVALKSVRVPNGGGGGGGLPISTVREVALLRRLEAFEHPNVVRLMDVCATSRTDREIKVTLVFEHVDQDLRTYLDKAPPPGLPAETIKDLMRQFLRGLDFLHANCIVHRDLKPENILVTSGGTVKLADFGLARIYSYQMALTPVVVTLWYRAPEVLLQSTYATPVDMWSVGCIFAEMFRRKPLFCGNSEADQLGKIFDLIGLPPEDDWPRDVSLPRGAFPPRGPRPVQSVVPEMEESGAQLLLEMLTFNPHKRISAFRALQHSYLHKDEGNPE
Assay [7] addresses Serine/threonine-protein kinase ULK3 (Homo sapiens) (UniProt Q6PHR2). Particulars: Compound concentration 1000.0 nM.
For assay [8], the target named is Mast/stem cell growth factor receptor Kit (Homo sapiens) (UniProt P10721). Particulars: Compound concentration 1000.0 nM.
Chain of Mast/stem cell growth factor receptor Kit (Homo sapiens) (P10721 whole entry, canonical isoform): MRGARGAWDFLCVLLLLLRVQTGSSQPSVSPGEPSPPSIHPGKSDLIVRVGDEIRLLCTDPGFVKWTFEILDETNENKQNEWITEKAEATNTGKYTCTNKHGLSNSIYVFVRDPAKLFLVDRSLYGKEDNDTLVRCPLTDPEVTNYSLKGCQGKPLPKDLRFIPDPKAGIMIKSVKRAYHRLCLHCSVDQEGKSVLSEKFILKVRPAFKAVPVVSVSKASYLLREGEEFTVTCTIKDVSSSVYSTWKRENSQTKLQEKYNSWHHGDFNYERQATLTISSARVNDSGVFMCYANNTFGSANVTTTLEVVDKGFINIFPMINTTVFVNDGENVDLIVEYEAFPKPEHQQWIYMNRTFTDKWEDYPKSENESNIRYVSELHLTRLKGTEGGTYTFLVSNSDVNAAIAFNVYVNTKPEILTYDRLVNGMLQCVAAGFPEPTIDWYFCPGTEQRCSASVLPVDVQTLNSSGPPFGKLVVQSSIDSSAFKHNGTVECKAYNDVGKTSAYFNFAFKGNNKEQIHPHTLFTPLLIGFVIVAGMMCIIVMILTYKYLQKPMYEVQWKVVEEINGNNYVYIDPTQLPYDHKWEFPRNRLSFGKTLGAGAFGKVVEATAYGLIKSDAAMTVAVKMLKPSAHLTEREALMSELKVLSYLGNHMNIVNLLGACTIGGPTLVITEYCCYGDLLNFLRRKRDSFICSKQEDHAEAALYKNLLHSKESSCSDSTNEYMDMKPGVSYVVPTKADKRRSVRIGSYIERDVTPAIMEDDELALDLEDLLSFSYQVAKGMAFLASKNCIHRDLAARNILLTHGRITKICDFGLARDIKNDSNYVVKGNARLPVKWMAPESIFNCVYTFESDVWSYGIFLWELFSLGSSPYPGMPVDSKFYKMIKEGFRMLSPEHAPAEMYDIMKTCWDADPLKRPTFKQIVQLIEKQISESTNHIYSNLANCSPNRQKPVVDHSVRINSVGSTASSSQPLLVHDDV
Assay [9] concerns Phosphatidylinositol 4,5-bisphosphate 3-kinase catalytic subunit alpha isoform (Homo sapiens), P42336 [E545K]. The note with it: Compound concentration 1000.0 nM.
The target in assay [10] is Serine/threonine-protein kinase BRSK2 (Homo sapiens) (UniProt Q8IWQ3). Particulars: Compound concentration 1000.0 nM.
The target in assay [11] is Cyclin-dependent kinase-like 5 (Homo sapiens) (UniProt O76039). The note with it: Compound concentration 1000.0 nM.
Chain of Cyclin-dependent kinase-like 5 (Homo sapiens) (O76039 whole entry): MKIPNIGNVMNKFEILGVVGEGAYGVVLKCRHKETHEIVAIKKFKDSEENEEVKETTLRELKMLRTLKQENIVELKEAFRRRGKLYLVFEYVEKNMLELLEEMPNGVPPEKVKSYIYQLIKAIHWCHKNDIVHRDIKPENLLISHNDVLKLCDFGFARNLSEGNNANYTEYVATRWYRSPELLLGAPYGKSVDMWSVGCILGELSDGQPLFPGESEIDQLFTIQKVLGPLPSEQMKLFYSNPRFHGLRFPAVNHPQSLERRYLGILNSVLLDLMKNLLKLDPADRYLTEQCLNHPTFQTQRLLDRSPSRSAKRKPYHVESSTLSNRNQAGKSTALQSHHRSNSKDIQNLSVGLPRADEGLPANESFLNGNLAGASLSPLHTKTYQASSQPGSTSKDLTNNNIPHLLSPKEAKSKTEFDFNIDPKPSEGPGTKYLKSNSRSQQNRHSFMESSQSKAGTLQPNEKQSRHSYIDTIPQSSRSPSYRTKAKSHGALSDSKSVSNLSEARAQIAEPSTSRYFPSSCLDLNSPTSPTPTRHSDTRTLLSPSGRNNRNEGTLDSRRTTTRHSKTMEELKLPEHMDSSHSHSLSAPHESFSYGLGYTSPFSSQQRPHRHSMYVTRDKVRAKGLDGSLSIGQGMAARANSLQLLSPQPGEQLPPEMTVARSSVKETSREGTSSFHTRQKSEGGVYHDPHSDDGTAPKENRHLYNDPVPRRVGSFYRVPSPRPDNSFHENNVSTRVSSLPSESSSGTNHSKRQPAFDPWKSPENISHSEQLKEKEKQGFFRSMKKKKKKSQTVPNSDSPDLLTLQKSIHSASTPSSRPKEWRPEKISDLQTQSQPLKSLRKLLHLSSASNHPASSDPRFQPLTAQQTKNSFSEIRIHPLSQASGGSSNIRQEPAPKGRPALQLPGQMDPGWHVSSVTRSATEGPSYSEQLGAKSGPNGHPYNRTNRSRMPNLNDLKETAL
Assay [12] deals with GABA-A receptor; anion channel (Rattus norvegicus) (UniProt O09028+P15431+P18506+P18508+P19969+P20236+P23574+P23576+P28471+P28473+P30191+P62813+P63079+P63138+Q91ZM7+Q9ES14). The note with it: Compound concentration 10.0 uM.
For assay [13], the target named is T1, Serine/threonine-protein kinase D3 (Homo sapiens) (UniProt O94806).
T1 sequence (whole entry): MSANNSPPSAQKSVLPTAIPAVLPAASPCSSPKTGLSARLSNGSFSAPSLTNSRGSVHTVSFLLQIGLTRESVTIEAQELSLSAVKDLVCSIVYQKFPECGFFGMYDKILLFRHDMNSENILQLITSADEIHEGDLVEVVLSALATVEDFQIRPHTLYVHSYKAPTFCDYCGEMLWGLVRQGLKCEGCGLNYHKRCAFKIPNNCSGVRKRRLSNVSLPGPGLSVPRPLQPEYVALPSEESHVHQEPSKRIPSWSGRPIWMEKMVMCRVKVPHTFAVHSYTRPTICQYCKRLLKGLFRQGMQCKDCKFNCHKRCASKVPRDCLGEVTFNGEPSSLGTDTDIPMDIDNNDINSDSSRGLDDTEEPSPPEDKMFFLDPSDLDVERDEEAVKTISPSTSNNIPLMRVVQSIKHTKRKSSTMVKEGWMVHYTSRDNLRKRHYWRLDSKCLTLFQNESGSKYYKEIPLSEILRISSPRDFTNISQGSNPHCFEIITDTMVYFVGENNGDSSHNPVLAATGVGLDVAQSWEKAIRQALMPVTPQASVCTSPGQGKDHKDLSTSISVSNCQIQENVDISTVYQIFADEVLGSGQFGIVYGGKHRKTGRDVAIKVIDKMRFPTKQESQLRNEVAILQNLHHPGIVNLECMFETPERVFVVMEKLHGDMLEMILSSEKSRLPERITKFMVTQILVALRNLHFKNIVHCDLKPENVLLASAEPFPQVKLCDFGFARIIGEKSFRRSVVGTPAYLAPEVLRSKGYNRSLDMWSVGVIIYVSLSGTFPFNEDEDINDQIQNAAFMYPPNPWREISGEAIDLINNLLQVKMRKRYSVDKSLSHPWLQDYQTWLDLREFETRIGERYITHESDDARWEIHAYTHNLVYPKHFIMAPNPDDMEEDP
Particulars: Compound concentration 1000.0 nM.

The target of assay [14] is Glycogen synthase kinase-3 alpha (Homo sapiens) (UniProt P49840). The note with it: Compound concentration 1000.0 nM.
The target in assay [15] is Mitogen-activated protein kinase kinase kinase 10 (Homo sapiens) (UniProt Q02779). The note with it: Compound concentration 1000.0 nM.
Assay [16] addresses T2, Homeodomain-interacting protein kinase 4 (Homo sapiens) (UniProt Q8NE63).
T2 sequence (whole entry): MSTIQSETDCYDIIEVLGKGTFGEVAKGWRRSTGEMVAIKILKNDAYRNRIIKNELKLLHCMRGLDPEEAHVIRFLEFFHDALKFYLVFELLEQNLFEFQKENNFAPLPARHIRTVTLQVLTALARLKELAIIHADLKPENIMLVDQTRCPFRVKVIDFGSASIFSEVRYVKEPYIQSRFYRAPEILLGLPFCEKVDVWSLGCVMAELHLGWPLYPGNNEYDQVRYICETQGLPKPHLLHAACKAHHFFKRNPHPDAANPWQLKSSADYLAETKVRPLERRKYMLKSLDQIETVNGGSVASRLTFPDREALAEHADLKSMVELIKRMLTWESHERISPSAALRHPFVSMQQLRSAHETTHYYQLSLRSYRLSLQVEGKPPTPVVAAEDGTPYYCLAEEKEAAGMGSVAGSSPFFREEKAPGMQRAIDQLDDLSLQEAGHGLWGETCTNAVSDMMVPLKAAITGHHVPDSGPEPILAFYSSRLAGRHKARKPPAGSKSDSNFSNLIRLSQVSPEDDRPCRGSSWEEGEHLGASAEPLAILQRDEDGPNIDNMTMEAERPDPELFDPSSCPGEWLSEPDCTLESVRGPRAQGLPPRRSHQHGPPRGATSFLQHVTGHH
Particulars: Compound concentration 1000.0 nM.

Chain of Serine/threonine-protein kinase ULK3 (Homo sapiens) (Q6PHR2 whole entry): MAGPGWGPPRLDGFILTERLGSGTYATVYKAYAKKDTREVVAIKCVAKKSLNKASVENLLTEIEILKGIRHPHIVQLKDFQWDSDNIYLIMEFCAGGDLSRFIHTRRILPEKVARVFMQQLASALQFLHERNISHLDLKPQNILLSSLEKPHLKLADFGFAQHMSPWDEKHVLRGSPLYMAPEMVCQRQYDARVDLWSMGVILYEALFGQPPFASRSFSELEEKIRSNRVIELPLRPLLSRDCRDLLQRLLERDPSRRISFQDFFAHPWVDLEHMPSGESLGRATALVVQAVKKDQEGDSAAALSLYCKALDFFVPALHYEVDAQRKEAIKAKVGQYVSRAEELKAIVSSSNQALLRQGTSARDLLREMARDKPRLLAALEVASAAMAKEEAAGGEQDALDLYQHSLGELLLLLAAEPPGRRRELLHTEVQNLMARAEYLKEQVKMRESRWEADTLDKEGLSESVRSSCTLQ
Chain of Cyclin-dependent kinase 2 homolog (Plasmodium falciparum (isolate 3D7)) (P61075 whole entry, canonical isoform): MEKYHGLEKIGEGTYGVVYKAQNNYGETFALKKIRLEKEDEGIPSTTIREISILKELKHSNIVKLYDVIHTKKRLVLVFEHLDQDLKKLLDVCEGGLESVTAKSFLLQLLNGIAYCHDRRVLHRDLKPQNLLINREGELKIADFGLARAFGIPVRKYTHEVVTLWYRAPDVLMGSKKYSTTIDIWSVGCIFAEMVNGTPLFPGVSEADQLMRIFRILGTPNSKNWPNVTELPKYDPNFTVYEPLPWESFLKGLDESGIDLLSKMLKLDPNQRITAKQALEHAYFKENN
Chain of Serine/threonine-protein kinase DCLK1 (Homo sapiens) (O15075 whole entry): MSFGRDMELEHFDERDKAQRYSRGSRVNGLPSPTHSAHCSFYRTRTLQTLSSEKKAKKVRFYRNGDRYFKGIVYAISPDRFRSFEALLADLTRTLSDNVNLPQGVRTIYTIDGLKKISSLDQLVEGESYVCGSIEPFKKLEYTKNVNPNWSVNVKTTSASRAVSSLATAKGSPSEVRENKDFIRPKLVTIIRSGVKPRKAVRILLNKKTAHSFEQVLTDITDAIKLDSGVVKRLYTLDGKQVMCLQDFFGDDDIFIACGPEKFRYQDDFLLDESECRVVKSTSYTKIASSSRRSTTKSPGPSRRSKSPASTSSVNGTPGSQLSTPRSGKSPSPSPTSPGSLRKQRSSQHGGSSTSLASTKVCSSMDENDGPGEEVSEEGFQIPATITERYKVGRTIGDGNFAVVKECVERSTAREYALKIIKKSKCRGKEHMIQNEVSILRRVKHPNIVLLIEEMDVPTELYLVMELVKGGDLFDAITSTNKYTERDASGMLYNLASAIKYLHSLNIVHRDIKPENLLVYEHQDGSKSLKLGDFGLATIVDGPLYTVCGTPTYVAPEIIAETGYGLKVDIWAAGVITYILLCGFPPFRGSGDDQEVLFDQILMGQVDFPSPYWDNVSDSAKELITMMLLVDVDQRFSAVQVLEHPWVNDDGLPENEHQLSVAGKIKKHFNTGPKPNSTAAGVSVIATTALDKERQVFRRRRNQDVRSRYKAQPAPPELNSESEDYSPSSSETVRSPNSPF

One may read the inhibition as the change of the read-out against control, counted positive when it falls. Regarding `CN(C)C(=O)Cn1cc(-c2nc(C3(c4ccc(-c5cnc(N)nc5)cc4)CC3)no2)cn1` [BI 0153], the residual activity is 88% in [1]; 100% in assay [2]; 94% in assay [3]; 100% in [4]; 90% in assay [5]; 44% in assay [6]. For the same compound, the residual activity in assay [7] is 68%; in [8], 77%; in assay [9] it was 85%; in assay [10], 77%; in [11] it was 82%; in assay [13] it was 92%. Moreover, the residual activity in [14] was 100%; in assay [15], 62%; in assay [16], 100%. In addition, in [12], the inhibition is 19.4%.
For `CN(C)C(=O)Cn1cc(-c2nc([C@@](C)(c3ccc(-c4cnc(N)nc4)cc3)C3CC3)no2)cn1` [BI 665915], the residual activity in [1] is 71%; in assay [2] it was 0%; in assay [3], 87%; in assay [4] it was 100%; in assay [5], 100%; in [6], 94%. In addition, the residual activity in assay [7] is 86%; in assay [8], 86%; in assay [9] it was 81%; in assay [10], 100%; in [11], 89%; in [13] it was 100%. For the same compound, the values for the residual activity in assay [14], in assay [15] and in [16] were 100%, 83% and 70%, respectively. Also, the inhibition in assay [12] was 25.5%.
